Reference: US20080249317A1 (APOTEX INC., priority 2007, published 2008)
Counter-ions that a name gives are not always drawn.

Assays:
[1] = acidic medium such as gastric fluid; background statement; cited from earlier work
[2] = Dissolution of 1 gram of crystalline carvedilol phosphate in methanol; format: physicochemical
Description: The improved solubility by the addition of acetic acid is exemplified by the following results.

Row | Compound | solubility [1] | methanol in which a solution was formed ([2]; containing 2% acetic acid (w/w relative to the carvedilol), solution formed rapidly) | methanol required for dissolution ([2]; in the absence of acetic acid)
1 | COc1ccccc1OCCNCC(O)COc1cccc2[nH]c3ccccc3c12 (stereo not drawn) [hydrochloride salt, 1,1-(9H-Carbazol-4-yloxy)-3-[[2-(2-methoxyphenoxy)ethyl]amino]-2-propanol] | reduced solubility | – | –
2 | carvedilol phosphate [crystalline carvedilol phosphate] | – | 3 mL | about 100 mL
